Structures can show the parent of a compound that is named as a salt.
Columns and labels:
cats = assay: Bioelectrical activity of the brain (electroencephalogram), cats; assay type: in vivo; details: for effect on the electroencephalogram: dose and species not given
From the text: The study of the effect on the bioelectrical activity of the brain was effected in acute experiments using 8 consious cats immobilized with diplacin with a mass of 2.5-3.4 kg under conditions of a controlled breathing and 25 rabbits with a mass of 2.6-3.1 kg with chronically implanted electrodes. Recorded on an electroencephalograph was an electroencephalogram of the sensomotor, parietal and visual regions of the cerebral cortex in cats, plus that of the reticular formation of the midbrain, dorsal hippocamp and amygdala in rabbits.

white mice [1] = assay: Porsolt's swimming behaviour test (duration of immobilization); assay type: in vivo; details: for Duration of immobilization, %: distilled water = 100
Procedure: The effect of the compound according to the present invention on the duration of immobilization in Porsolt's swimming behaviour test (Porsolt et al., 1977) in experiments on white mice of both sexes with a mass of 16-18 g. […] Sixty minutes after the last (or a single) administration of the preparations, the mice were placed into cylinders (10 cm diameter, 25 cm height) filled with water to 6 cm. The temperature of water was 21-22 °C. […] The number and duration of all stops in swimming (immobilization) over the observation period were recorded.

white rats = assay: Stereotypy induced by d,l-amphetamine; assay type: in vivo; details: distilled water = 100
Procedure: To evaluate the influence on stereotypy, the experiments were carried out on white rats of both sexes with a mass of 100-150 g. […] Stereotypy was assessed in points of from to 3 (after Janssen et al., 1967).

male white mice = assay: Hyperlocomotion induced by d,l-amphetamine; assay type: in vivo; details: 10-20 minutes after d,l-amphetamine 2.5 mg/kg intraperitoneally, distilled water 1,924.5±177.6
Procedure: The influence on hyperlocomotion induced by d,l-amphetamine was studied in experiments on male white mice with a mass of 20-22 g.
The locomotive activity of the mice was recorded 10-20 minutes after administration of d,l-amphetamine for 10 minutes.

white mice [2] = assay: Enhancement of the effect of 5-hydroxytryptophane (head shaking); assay type: in vivo; details: Mus musculus, po, 25 min; orally, 60 minutes prior to 5-hydroxytryptophane 50 mg/kg intraperitoneally; read 25 minutes after; read-out: ED₅₀, the dose at which head shaking were noticed in 50% of the animals
Procedure: The compound according to the present invention was tasted for the exciting effect of 5-hydroxytryptophane (head shaking).
The compound according to the present invention in the doses of 1.0, 2.5, 5.0 and 10 mg/kg was administered orally 60 minutes prior to an intraperitoneal administration of 5-hydroxytryptophane (50 mg/kg).

[3] = Pharmacokinetics: penetration into and stay in the brain tissues; details: in vivo
male rats = assay: Conditional reflex of passive avoidance after amnesia (antiamnestic effect); assay type: in vivo; details: for Number of rats, %, remained on the platform for 1 minute, 2.5 hours after administration of scopolamine (1 mg/kg hypodermally): amnesia control 10±3.3, distilled water 85±2.0; for Number of rats, %, remained on the platform for 1 minute, 1 day after electric shock: electroshock alone 14.2±3.0, distilled water 85±2.0
Procedure: Also studied was the effect of the compound according to the present invention on reproduction of the memory traces upon amnesia.
The experiments were carried out using male rats of a mass of 180-220 g.
The antiamnestic effect of the compound according to the present invention was assessed by the method of a conditional reflex of a passive avoidance with a subsequent use, as amnesic factors, of an electric shock (50 mA, 0.3 ms) through ear electrodes or scopolamine (1 mg/kg hypodermally).
The learning of the conditional reflex of a passive avoidance was effected by the "Step-down" method (Izquerdo, 1981) in an experimental unit consisting of a 30x30x40 cm chamber with an electrified floor having in its centre a plastic platform of 10x15x0.5 cm size. A rat was placed onto the platform and a latent period of its escape therefrom was recorded (in seconds). When escaping the platform onto the floor, the rat was subjected to an electric irritation on paws (0.5 mA, 10 seconds) that made it to climb the platform. The learning course took 6 sessions, each of 3 minutes duration. The conditional response was regarded as acquired if an animal remained on the platform for 1 minute.
The amnesic effect was produced immediately after learning course and 30 minutes thereafter the compound according to the present invention was administered in the doses of 1 and 3 mg/kg or (for comparison) pyracetam was administered in the doses of 100, 300, 600 and 1,000 mg/kg. The reproduction of the memory trace was assessed 24 hours after the electric shock and 2.5 hours after administration of scopolamine.

[4] = 5-days' administration, 10.0 mg/kg orally (dose from row order)
[5] = 5-days' administration, 25.0 mg/kg orally (dose from row order)
[6] = 18-days' administration, 10.0 mg/kg orally (dose from row order)
[7] = 18-days' administration, 25.0 mg/kg orally (dose from row order)
[8] = single administration, 10.0 mg/kg orally
[9] = single administration, 25.0 mg/kg orally

SMILES	effect on the electroencephalogram (cats)	Duration of immobilization, Seconds, M±m (white mice [1]; [4]) [s]	Duration of immobilization, % (white mice [1]; [4]) [%]	Duration of immobilization, Seconds, M±m (white mice [1]; [5]) [s]	Duration of immobilization, % (white mice [1]; [5]) [%]	Duration of immobilization, Seconds, M±m (white mice [1]; [6]) [s]	Duration of immobilization, % (white mice [1]; [6]) [%]	Duration of immobilization, Seconds, M±m (white mice [1]; [7]) [s]	Duration of immobilization, % (white mice [1]; [7]) [%]	Duration of immobilization, Seconds, M±m (white mice [1]; [8]) [s]	Duration of immobilization, % (white mice [1]; [8]) [%]	Duration of immobilization, % (white mice [1]; [9]) [%]	Stereotypy (tolal, for 4 measurements for 4 hours after hypodermal administration of d,l-amphetamine), % (white rats; oral dose 5.0 mg/kg) [%]	Stereotypy (tolal, for 4 measurements for 4 hours after hypodermal administration of d,l-amphetamine), % (white rats; oral dose 10.0 mg/kg) [%]	Average value of locomotor activity of a group of 5 mice for 10 minutes (male white mice; 5.0 mg/kg oral)	Average value of locomotor activity of a group of 5 mice for 10 minutes (male white mice; 10.0 mg/kg oral)	further results
CN(C)CCC=C1c2ccccc2CCc2ccccc21 [amitryptyline, reference compound]	synchronizing effect																
CN(C)CCCN1c2ccccc2CCc2ccccc21 [Imipramine, N-(3-dimethylaminopropyl)-aminodibenzyl hydrochloride]	synchronizing effect	92 ± 5.9	59	61 ± 6.3	39	96 ± 9.8	52	66 ± 9.8	36	131 ± 5.6	88	70	200	306	1,440.3±365.2	2,024.5±221.7	
Cc1ccc2c(c1)c1c3n2CCNC3CCC1 (stereo not shown) [Pyrazidol, 2,3,3a,4,5,6-hexahydro-8-methyl-1H-pyrazino(3,2,1-j,k)-carbazole hydrochloride]		142 ± 5.7	87	116 ± 8.1	71	129 ± 8.0	70	112 ± 8.6	61	164 ± 5.9	93	82	165	210	1,440.0±380.2	1,926.0±119.9	Duration of immobilization, Seconds, M±m (white mice [1]; [9]): 144 ± 9.9 s; ED50 (white mice [2]): 20 mg/kg; effect on the electroencephalogram of the cortex and subcortical structures of the brain (cats; 1 to 5 mg/kg intravenously, species not specified): predominantly activating effect; time the drug remains in the brain tissues [3]: at most 1.5 hours
NC(=O)CN1CCCC1=O [Pyracetam]																	Number of rats, %, remained on the platform for 1 minute, 2.5 hours after administration of scopolamine (1 mg/kg hypodermally) (male rats; 100 mg/kg oral): 12±5.5%; Number of rats, %, remained on the platform for 1 minute, 1 day after electric shock (male rats; 100 mg/kg oral): 12±3.3%; Number of rats, %, remained on the platform for 1 minute, 2.5 hours after administration of scopolamine (1 mg/kg hypodermally) (male rats; 300 mg/kg oral): 13±1.6%; Number of rats, %, remained on the platform for 1 minute, 1 day after electric shock (male rats; 300 mg/kg oral): 13±4.2%; Number of rats, %, remained on the platform for 1 minute, 2.5 hours after administration of scopolamine (1 mg/kg hypodermally) (male rats; 600 mg/kg oral): 20±5.5%; Number of rats, %, remained on the platform for 1 minute, 1 day after electric shock (male rats; 600 mg/kg oral): 12±3.3%; Number of rats, %, remained on the platform for 1 minute, 1 day after electric shock (male rats; 1000 mg/kg oral): 46±6.4%
